# ChEMBL document CHEMBL1201862, “PubChem BioAssay data set” (2004)
# Activity calls are given as the source filed them.
# Legend:
# Protein skinhead-1 = target: T1, Protein skinhead-1 (Caenorhabditis elegans, UniProt P34707); assay type: functional
# T1 sequence (P34707 whole entry): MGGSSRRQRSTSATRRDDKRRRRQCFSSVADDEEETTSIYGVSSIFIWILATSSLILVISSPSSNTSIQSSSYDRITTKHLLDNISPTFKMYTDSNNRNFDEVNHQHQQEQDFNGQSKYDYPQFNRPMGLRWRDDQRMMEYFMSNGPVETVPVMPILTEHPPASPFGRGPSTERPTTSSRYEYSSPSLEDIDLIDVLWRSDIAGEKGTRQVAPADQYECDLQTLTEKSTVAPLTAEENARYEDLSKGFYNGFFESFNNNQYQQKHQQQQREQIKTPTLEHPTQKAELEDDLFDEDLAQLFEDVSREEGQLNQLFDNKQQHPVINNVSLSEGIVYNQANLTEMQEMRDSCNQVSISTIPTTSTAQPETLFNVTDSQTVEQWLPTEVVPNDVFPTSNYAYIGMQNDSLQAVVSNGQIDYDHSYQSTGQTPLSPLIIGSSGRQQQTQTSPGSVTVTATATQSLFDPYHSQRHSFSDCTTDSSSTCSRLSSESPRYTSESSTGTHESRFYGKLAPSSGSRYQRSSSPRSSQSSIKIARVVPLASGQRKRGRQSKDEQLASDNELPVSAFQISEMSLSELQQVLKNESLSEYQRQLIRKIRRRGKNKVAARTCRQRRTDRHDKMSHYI
# [1] = target: T2, Zinc finger protein mex-5 (Caenorhabditis elegans, UniProt Q9XUB2); test: MEX-5/TCR-2 RNA interaction inhibitors, dose response, biochemical, C. elegans, fluorescence polarization (AID 1960)
# T2 sequence (Q9XUB2 whole entry): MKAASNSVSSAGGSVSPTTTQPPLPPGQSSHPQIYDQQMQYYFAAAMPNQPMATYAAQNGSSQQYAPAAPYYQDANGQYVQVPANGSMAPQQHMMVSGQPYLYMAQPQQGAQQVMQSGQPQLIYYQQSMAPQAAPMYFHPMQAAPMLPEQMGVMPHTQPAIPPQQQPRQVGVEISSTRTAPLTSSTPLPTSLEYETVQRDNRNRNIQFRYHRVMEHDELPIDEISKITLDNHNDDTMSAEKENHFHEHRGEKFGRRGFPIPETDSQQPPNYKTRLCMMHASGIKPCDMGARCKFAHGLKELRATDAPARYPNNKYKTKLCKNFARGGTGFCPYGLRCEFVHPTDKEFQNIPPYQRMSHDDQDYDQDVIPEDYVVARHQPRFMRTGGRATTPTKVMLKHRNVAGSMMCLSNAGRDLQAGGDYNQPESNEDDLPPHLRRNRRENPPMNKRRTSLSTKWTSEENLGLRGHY
# [2] = target: T3, RNA-binding protein pos-1 (Caenorhabditis elegans, UniProt G5EF15); test: inhibitors of POS-1/mex-3 RNA binding, dose response, biochemical, fluorescence polarization (AID 1964);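 further: purified POS-1 fused to maltose binding protein made in E. coli; potency of compounds blocking POS-1 binding to fluorescent RNA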
# T3 sequence (G5EF15 whole entry): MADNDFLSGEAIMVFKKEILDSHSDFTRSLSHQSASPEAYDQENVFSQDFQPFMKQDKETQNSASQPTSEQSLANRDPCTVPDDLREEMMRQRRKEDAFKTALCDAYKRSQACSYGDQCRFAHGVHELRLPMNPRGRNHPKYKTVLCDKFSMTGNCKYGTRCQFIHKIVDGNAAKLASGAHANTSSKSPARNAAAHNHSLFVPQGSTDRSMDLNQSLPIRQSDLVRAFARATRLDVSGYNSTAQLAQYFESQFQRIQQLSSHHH
# [3] = inhibitors of HIV Env-driven cell fusion, dose response, cherry-pick (AID 652057); assay type: functional, cell-based
# [4] = inhibitors of clade B AD8 Env fusion, dose response, cell-based, cherry-pick (AID 652062); assay type: functional;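 further: luciferase signal from cell-cell fusion driven by HIV-1 clade B AD8 Env; potency is for inhibitors of fusion seen as a drop in luminescence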
# [5] = target: T4, Probable nicotinate-nucleotide adenylyltransferase (Staphylococcus aureus (strain N315), UniProt P65502); assay type: functional, Staphylococcus aureus subsp. aureus N315; conditions: read-out: IC50_Mean;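 on IC50 Mean: confirmatory dose-response retesting of NadD inhibitor hits first found in an ultra-high-throughput screen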
# T4 sequence (P65502 whole entry): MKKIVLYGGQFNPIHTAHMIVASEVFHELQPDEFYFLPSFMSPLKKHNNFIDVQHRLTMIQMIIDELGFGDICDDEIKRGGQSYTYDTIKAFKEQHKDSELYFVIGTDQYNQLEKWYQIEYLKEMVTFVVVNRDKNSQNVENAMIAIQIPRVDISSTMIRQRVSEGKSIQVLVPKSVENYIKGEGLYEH
# [6] = target: T4, Probable nicotinate-nucleotide adenylyltransferase; assay type: functional, Staphylococcus aureus subsp. aureus N315
# [7] = target: DNA dC->dU-editing enzyme APOBEC-3G (Homo sapiens, UniProt Q9HC16); assay type: functional;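 further: Dose-response counterscreen measuring inhibition of APOBEC3G DNA deaminase activity, run while confirming APOBEC3A inhibitors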
# Sequence of DNA dC->dU-editing enzyme APOBEC-3G (Q9HC16 whole entry): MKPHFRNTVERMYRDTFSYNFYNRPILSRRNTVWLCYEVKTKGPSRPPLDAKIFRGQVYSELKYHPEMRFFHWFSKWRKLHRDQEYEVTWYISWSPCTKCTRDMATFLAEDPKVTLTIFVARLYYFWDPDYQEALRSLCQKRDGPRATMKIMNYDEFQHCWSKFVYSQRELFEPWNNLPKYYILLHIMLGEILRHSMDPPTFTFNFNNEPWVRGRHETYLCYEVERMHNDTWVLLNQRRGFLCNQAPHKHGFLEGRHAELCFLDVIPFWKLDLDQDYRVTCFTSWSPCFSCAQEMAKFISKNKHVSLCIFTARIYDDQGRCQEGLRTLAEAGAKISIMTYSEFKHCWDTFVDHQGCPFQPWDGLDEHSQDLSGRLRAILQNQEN
# [8] = target: DNA dC->dU-editing enzyme APOBEC-3A (Homo sapiens, UniProt P31941); test: Dose Response confirmation of small molecule APOBEC3A DNA Deaminase Inhibitors via a fluorescence-based single-stranded DNA deaminase assay. [Related pubchem assays (depositor defined):AID493011, AID493024]; assay type: functional
# Sequence of DNA dC->dU-editing enzyme APOBEC-3A (P31941 whole entry): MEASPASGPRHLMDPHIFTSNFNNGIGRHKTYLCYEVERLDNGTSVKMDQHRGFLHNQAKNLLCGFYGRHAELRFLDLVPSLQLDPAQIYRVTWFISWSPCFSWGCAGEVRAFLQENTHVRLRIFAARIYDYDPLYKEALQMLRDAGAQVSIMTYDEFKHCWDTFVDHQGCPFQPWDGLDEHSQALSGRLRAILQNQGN
# H9c2 = test: cells; assay type: functional, cell-based; conditions: Rattus norvegicus, H9c2, Myocardium;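 further: confirmatory concentration-response retest of ultra-high-throughput screening hits for modulation of myocardial damage; cell death induced by hydrogen peroxide oxidative stress; compound pretreatment for 60 min then peroxide exposure for 2 h; potency is for protecting the cells against peroxide damage rather than for killing them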
# Streptococcus = test: Group A Streptococcus viability loss, dose response, counter-screen for streptokinase expression inhibitor project, luminescence, BacTiterGlo (AID 1915); assay type: functional, organism-based;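 further: potency for reduction of bacterial viability or growth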
# [9] = test system: Streptococcus sp. 'group A'; test: growth inhibition of control SK(-) GAS strain, dose response, counter-screen for streptokinase expression inhibitor project, luminescence, kanamycin, BacTiterGlo, confirmation (AID 1900); assay type: functional, organism-based
# Streptokinase A = target: T5, Streptokinase A (Streptococcus pyogenes serotype M1, UniProt P10520); test: S. pyogenes streptokinase expression inhibitors, potency, dose response, plasminogen activation absorbance, OD405 (AID 1914); assay type: functional, Streptococcus pyogenes M1 GAS;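 further: secreted streptokinase activity via plasminogen activation per viability signal from cell pellet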
# T5 sequence (P10520 whole entry): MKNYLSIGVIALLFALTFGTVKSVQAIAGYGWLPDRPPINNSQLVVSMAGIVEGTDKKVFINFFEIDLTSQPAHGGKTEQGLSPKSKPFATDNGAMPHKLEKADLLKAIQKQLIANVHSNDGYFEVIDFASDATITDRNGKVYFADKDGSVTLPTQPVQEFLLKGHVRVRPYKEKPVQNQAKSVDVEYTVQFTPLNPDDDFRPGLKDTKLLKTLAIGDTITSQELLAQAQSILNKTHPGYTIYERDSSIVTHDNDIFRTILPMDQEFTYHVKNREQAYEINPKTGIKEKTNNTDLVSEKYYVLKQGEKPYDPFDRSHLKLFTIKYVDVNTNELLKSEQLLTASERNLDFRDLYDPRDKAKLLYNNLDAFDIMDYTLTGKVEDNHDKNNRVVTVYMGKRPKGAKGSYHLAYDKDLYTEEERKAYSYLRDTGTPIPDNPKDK
# [10] = cytotoxicity toward DRD oncogenic fibroblasts, dose response, cell-based, non-viral oncogenic, luminescence (AID 1934); assay type: functional; conditions: Homo sapiens
# BJ [11] = test: cells; assay type: functional, cell-based; conditions: Homo sapiens
# BJ [12] = test: cytotoxicity toward BJ-TERT-LT-ST fibroblasts, dose response, cell-based, RAS-independent, luminescence (AID 1935); assay type: functional; conditions: Homo sapiens;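 further: BJ fibroblasts immortalized with TERT plus LT and ST oncogenes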
# BJ [13] = test: cytotoxicity toward BJ-TERT fibroblasts, dose response, cell-based, RAS-independent, luminescence (AID 1933); assay type: functional; conditions: Homo sapiens
# [14] = HEp-2 cell cytotoxicity, dose response, cytotoxicity control for RSV inhibitor project, HTS (AID 2410); assay type: functional; conditions: human respiratory syncytial virus
# [15] = target: T6, Corticotropin-releasing factor receptor 2/Corticotropin-releasing factor-binding protein (Homo sapiens, UniProt P24387+Q13324); test: activators of CRF receptor 2 with binding protein – uHTS hits, confirmation (AID 602473); assay type: functional; conditions: read-out: EC50_Mean
# T6 sequence (Q13324 whole entry): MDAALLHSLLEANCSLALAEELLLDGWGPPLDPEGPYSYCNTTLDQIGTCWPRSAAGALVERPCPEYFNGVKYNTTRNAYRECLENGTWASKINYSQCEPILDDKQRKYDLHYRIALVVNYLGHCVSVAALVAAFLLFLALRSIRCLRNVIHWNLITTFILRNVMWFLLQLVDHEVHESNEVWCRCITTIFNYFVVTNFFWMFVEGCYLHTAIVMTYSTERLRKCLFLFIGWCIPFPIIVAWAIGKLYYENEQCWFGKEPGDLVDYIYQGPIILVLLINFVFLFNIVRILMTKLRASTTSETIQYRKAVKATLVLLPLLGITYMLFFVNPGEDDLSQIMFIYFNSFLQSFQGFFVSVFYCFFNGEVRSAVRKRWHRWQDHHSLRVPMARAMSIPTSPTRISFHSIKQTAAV
# T6 sequence (P24387 whole entry): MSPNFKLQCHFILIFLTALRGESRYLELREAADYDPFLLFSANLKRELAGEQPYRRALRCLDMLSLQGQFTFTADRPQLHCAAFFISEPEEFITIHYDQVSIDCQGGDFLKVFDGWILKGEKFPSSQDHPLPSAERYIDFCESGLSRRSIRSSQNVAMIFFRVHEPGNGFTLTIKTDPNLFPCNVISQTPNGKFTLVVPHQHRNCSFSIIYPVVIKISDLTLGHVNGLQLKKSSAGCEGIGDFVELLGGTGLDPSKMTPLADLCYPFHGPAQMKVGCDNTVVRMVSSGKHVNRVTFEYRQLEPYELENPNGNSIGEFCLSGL
# [16] = target: T6, Corticotropin-releasing factor receptor 2/Corticotropin-releasing factor-binding protein; test: Dose Response confirmation of uHTS hits for small molecule antagonists of the CRF-binding protein and CRF-R2 receptor complex.; assay type: functional; conditions: read-out: IC50_Mean
# SN12K1 = test: cells; assay type: functional; conditions: Homo sapiens
# P388/ADR = test: cells; assay type: functional; conditions: Mus musculus
# P388 = test: cells; assay type: functional; conditions: Mus musculus
smiles,measurement,setting,value
COc1ccc(/C=C2\SC(=O)N(CC(=O)Nc3ccccc3O)C2=O)cc1OC,IC50,Protein skinhead-1,> 100 µM (inactive)
Clc1ccc(OCc2nc(-c3ccncc3)no2)c(Br)c1,IC50,Protein skinhead-1,31.6 µM (active)
CCOC(=O)c1ccc2c(c1)C1C=CCC1C(C(=O)OCC)N2 (configuration not stated),EC50,[1],> 300 µM (not active)
same,EC50,[2],> 300 µM (not active)
C[C@H](CO)N1C[C@H](C)[C@H](CN(C)Cc2cccc(F)c2)OCc2ccccc2-c2ccccc2C1=O,AC50,[3],< 0.26 µM (active)
same,AC50,[4],< 0.26 µM (active)
O=S(=O)(NC(=Nc1ccc(Cl)c(S(=O)(=O)Nc2ccccc2Cl)c1)c1ccc(F)cc1)c1ccccc1,IC50,[5],80 µM (inactive)
same,IC50,[6],13.7 µM (active)
CN(C(=O)CSCC(=O)Nc1ccc(Cl)cc1)C1CCCCC1,IC50,Protein skinhead-1,> 100 µM (inactive)
NS(=O)(=O)c1cc(C(=O)OCC(=O)Nc2ccc3[nH]c(O)nc3c2)ccc1Cl,IC50,[7],8.99 µM (active)
same,IC50,[8],10.4 µM (active)
O=C(CCc1nc(O)c2ccccc2n1)OCC(=O)N1CCc2ccccc21,IC50,H9c2,> 79 µM (inactive)
Cc1cccc(C(=O)N[C@H](C(=O)OCc2cc(=O)n3c(n2)sc2ccccc23)C(C)C)c1,IC50,[7],24.5 µM (active)
same,EC50,Streptococcus,40.5 µM (active)
same,EC50,[9],26.2 µM (active)
same,EC50,Streptokinase A,> 150 µM (not active)
same,IC50,[8],14.7 µM (active)
CCOCCCn1/c(=N/C(=O)c2ccc(OC)c(OC)c2)c(C#N)cc2c(=O)n3cccc(C)c3nc21,EC50,[1],35.4 µM (active)
same,EC50,[2],26.8 µM (active)
COCCNC1=N[C@@H](c2ccc(Br)cc2)C(C(=O)OC)=C(C)N1Cc1ccccc1,IC50,[7],15.1 µM (active)
same,IC50,[8],12 µM (active)
Cc1cc2ccccn2c1C(=O)c1ccc(Cl)c([N+](=O)[O-])c1,EC50,[10],> 150 µM (not active)
same,EC50,BJ [11],> 150 µM (not active)
same,EC50,BJ [12],> 150 µM (inconclusive)
same,EC50,BJ [13],> 150 µM (not active)
Cc1cc(C=C2C(=O)NC(=O)NC2=O)c(C)n1-c1cccnc1,EC50,[1],36.7 µM (inconclusive)
same,EC50,[2],64.3 µM (active)
Cc1cccc(C(=O)NC(C(=O)Nc2nc(-c3ccccn3)cs2)C(C)C)c1 (configuration not stated),EC50,Streptococcus,17.1 µM (active)
same,EC50,[9],6.29 µM (active)
same,EC50,Streptokinase A,> 150 µM (not active)
same,IC50,H9c2,8.6 µM (active)
C#CCn1/c(=N/C(=O)c2cc(-c3cccs3)nc3ccccc23)sc2cc(S(N)(=O)=O)ccc21,IC50,[5],24.6 µM (active)
same,CC50,[14],> 50 µM (active)
same,IC50,[6],12.8 µM (active)
CSc1nc(Cl)c(Br)c(N2CC2)n1,IC50,H9c2,> 79 µM (inactive)
CCCc1n(CC(O)COCc2ccccc2)c2ccccc2[n+]1C (configuration not stated),IC50,[7],4.55 µM (active)
same,IC50,[8],3.16 µM (active)
Cc1ccccc1COc1ccc(C(=O)C2=C(O)C(=O)N(CCCn3ccnc3)C2c2ccco2)cc1 (configuration not stated),IC50,[5],80 µM (inactive)
same,EC50,[15],> 53 µM (inactive)
same,IC50,[6],10.5 µM (active)
same,IC50,[16],> 47.1 µM (inactive)
CCOC(=O)c1ccc(NC(=O)c2[nH]cnc2C(=O)NCCCCCNC(=O)OC(C)(C)C)cc1,EC50,Streptococcus,5.74 µM (active)
same,EC50,[9],3.49 µM (active)
same,IC50,H9c2,> 79 µM (inactive)
CCc1n(CC(O)COCc2ccccc2)c2ccccc2[n+]1C (configuration not stated),IC50,[7],3.14 µM (active)
same,IC50,[8],2.36 µM (active)
Cc1cccc(-n2nc3c(c2NC(=O)c2ccc(Br)o2)CSC3)c1,IC50,[5],17.5 µM (active)
same,IC50,[6],4.58 µM (active)
O=C1N[C@H](Cc2ccccc2)COC(=O)[C@@H](Cc2ccc(F)cc2)C/C=C\C[C@H]1CC(=O)N(CCO)Cc1ccccc1,IC50,H9c2,> 79 µM (inactive)
COc1cc(NCc2ccc3nc(N)nc(N)c3c2C)cc(OC)c1OC,GI50,SN12K1,0.025 µM (active)
same,GI50,P388/ADR,0.025 µM (active)
same,GI50,P388,0.025 µM (active)
